Source: US5416081A, “Cephalosporin compounds” (Lucky Limited, priority 1992, dated 1995)
In brackets after ≈: the same amount, converted by molar mass. Read-outs that look alike come from different tables or passages of the source.

How the values were obtained:
Format in all cases: cell-based
S. typhimunium/14028A = assay: MIC against standard strain by two-fold agar dilution, S. typhimunium/14028A; conditions: S. typhimunium/14028A; Muller-Hinton agar, 37° C., 20 hours; read-out: MIC
Method: (§1) These MIC values were taken by employing a two-fold dilution method: that is, two-fold serial dilutions of each of the test compounds were made and dispersed in a Muller-Hinton agar medium; 2 μl of the standard test strain which had the 10^7 CFU(Colony Forming Unit) per ml was inoculated on the medium; and these were incubated at 37° C. for 20 hours.

E. cloacae/1194E = assay: MIC against standard strain by two-fold agar dilution, E. cloacae/1194E; conditions: Enterobacter cloacae; E. cloacae/1194E; Muller-Hinton agar, 37° C., 20 hours; read-out: MIC
Method: as §1

P. aeruginosa/10145 = assay: MIC against standard strain by two-fold agar dilution, P. aeruginosa/10145; conditions: Pseudomonas aeruginosa; P. aeruginosa/10145; Muller-Hinton agar, 37° C., 20 hours; read-out: MIC
Method: as §1

S. aureus/6538pA = assay: MIC against standard strain by two-fold agar dilution, S. aureus/6538pA; conditions: Staphylococcus aureus
Method: as §1

E. coli TEM5/3739E = assay: MIC against standard strain by two-fold agar dilution, E. coli TEM5/3739E; conditions: Escherichia coli, 20 h
Method: as §1

S. aureus/giorigio = assay: MIC against standard strain by two-fold agar dilution, S. aureus/giorigio; conditions: Staphylococcus aureus
Method: as §1

E. coli/3190Y = assay: MIC against standard strain by two-fold agar dilution, E. coli/3190Y; conditions: Escherichia coli
Method: as §1

E. coli TEM9/2639E = assay: MIC against standard strain by two-fold agar dilution, E. coli TEM9/2639E; conditions: Escherichia coli, 20 h
Method: as §1

S. marcescens/1826E = assay: MIC against standard strain by two-fold agar dilution, S. marcescens/1826E; conditions: Serratia marcescens; S. marcescens/1826E; Muller-Hinton agar, 37° C., 20 hours; read-out: MIC
Method: as §1

E. coli/10536 = assay: MIC against standard strain by two-fold agar dilution, E. coli/10536; conditions: Escherichia coli
Method: as §1

P. aeruginosa/1912E = assay: MIC against standard strain by two-fold agar dilution, P. aeruginosa/1912E; conditions: Pseudomonas aeruginosa; P. aeruginosa/1912E; Muller-Hinton agar, 37° C., 20 hours; read-out: MIC
Method: as §1

E. coli TEM1/1193E = assay: MIC against standard strain by two-fold agar dilution, E. coli TEM1/1193E; conditions: Escherichia coli, 20 h
Method: as §1

A. calcoaceticus /15473A = assay: MIC against standard strain by two-fold agar dilution, A. calcoaceticus /15473A; conditions: Acinetobacter calcoaceticus; A. calcoaceticus /15473A; Muller-Hinton agar, 37° C., 20 hours; read-out: MIC
Method: as §1

S. aureus/77 = assay: MIC against standard strain by two-fold agar dilution, S. aureus/77; conditions: Staphylococcus aureus
Method: as §1

P. aeruginosa/6065Y = assay: MIC against standard strain by two-fold agar dilution, P. aeruginosa/6065Y; conditions: Pseudomonas aeruginosa; P. aeruginosa/6065Y; Muller-Hinton agar, 37° C., 20 hours; read-out: MIC
Method: as §1

K. aerogenes/1776E = assay: MIC against standard strain by two-fold agar dilution, K. aerogenes/1776E; conditions: Klebsiella aerogenes; K. aerogenes/1776E; Muller-Hinton agar, 37° C., 20 hours; read-out: MIC
Method: as §1

[1] = E. coli/3190Y, Muller-Hinton agar, 37° C., 20 hours, read-out: MIC
[2] = S. aureus/77, Muller-Hinton agar, 37° C., 20 hours, read-out: MIC
[3] = S. aureus/6538pA, Muller-Hinton agar, 37° C., 20 hours, read-out: MIC
[4] = S. aureus/giorigio, Muller-Hinton agar, 37° C., 20 hours, read-out: MIC
[5] = E. coli/10536, Muller-Hinton agar, 37° C., 20 hours, read-out: MIC

Row | Compound | MIC (S. typhimunium/14028A) | MIC (E. cloacae/1194E) | MIC (P. aeruginosa/10145) | MIC (S. aureus/6538pA; 20 h) | MIC (E. coli TEM5/3739E) | MIC (E. coli/3190Y; [1]) | MIC (E. coli TEM9/2639E) | MIC (S. marcescens/1826E) | MIC (P. aeruginosa/1912E) | MIC (E. coli TEM1/1193E) | MIC (A. calcoaceticus /15473A) | MIC (S. aureus/77; [2]) | MIC (P. aeruginosa/6065Y) | MIC (K. aerogenes/1776E) | MIC (S. aureus/6538pA; [3]) | MIC (S. aureus/giorigio; [4]) | MIC (E. coli/10536; [5]) | further results
1 | CC(C)(O/N=C(\C(=O)NC1C(=O)N2C(C(=O)[O-])=C(CSc3nc(N)c4c([n+]3N)CCC4)CSC12)c1csc(N)n1)C(=O)O (stereo not drawn) [Compound I-1, 7-[(Z)-2-(2-aminothiazol-4-yl)-2-(2-carboxyprop-2-oxyimino)acetamido]-3-(1,4-diamino-1,5,6,7-tetrahydro-cyclopentapyrimidinium-2-yl)thiomethyl-3-cephem-4-carboxylate] | 0.13 µg/mL (≈ 0.2 µM) | 4 µg/mL (≈ 6.16 µM) | 1 µg/mL (≈ 1.54 µM) | 2 µg/mL (≈ 3.08 µM) | 0.25 µg/mL (≈ 0.385 µM) | 0.016 µg/mL (≈ 0.0246 µM) | 2 µg/mL (≈ 3.08 µM) | 0.25 µg/mL (≈ 0.385 µM) | 0.5 µg/mL (≈ 0.77 µM) | 0.063 µg/mL (≈ 0.097 µM) | 2 µg/mL (≈ 3.08 µM) | 4 µg/mL (≈ 6.16 µM) | 4 µg/mL (≈ 6.16 µM) | 0.13 µg/mL (≈ 0.2 µM) | – | – | – | MIC (S. aureus/giorigio; 20 h): 1 µg/mL (≈ 1.54 µM); MIC (E. coli/10536; 20 h): 0.063 µg/mL (≈ 0.097 µM)
2 | C[n+]1c(SCC2=C(C(=O)[O-])N3C(=O)C(NC(=O)/C(=N\OC(C)(C)C(=O)O)c4csc(N)n4)C3SC2)nc(N)c2c1CCC2 (stereo not drawn) [Compound I-2, 7-[(Z)-2-(2-aminothiazol-4-yl)-2-(2-carboxyprop-2-oxyimino)acetamido]-3-(4-amino-1-methyl-1,5,6,7-tetrahydro-cyclopentapyrimidinium-2-yl)thiomethyl-3-cephem-4-carboxylate] | 0.25 µg/mL (≈ 0.385 µM) | 4 µg/mL (≈ 6.17 µM) | 1 µg/mL (≈ 1.54 µM) | – | 0.5 µg/mL (≈ 0.771 µM) | 0.063 µg/mL (≈ 0.0971 µM) | 2 µg/mL (≈ 3.08 µM) | 0.5 µg/mL (≈ 0.771 µM) | 0.5 µg/mL (≈ 0.771 µM) | 0.13 µg/mL (≈ 0.2 µM) | 1 µg/mL (≈ 1.54 µM) | – | 4 µg/mL (≈ 6.17 µM) | 0.13 µg/mL (≈ 0.2 µM) | 2 µg/mL (≈ 3.08 µM) | 1 µg/mL (≈ 1.54 µM) | 0.13 µg/mL (≈ 0.2 µM) | MIC (S. aureus/77; 20 h): 8 µg/mL (≈ 12.3 µM)
3 | Nc1nc(/C(=N/OCC(=O)O)C(=O)NC2C(=O)N3C(C(=O)[O-])=C(CSc4nc(N)c5c([n+]4N)CCC5)CSC23)cs1 (stereo not drawn) [Compound I-8, 7-[(Z)-2-(2-aminothiazol-4-yl)-2-(1-carboxymeth-1-oxyimino)acetamido]-3-(1,4-diamino-1,5,6,7-tetrahydro-cyclopentapyrimidinium-2-yl)thiomethyl-3-cephem-4-carboxylate] | 0.25 µg/mL (≈ 0.402 µM) | 8 µg/mL (≈ 12.9 µM) | 1 µg/mL (≈ 1.61 µM) | – | 2 µg/mL (≈ 3.22 µM) | 0.063 µg/mL (≈ 0.101 µM) | 2 µg/mL (≈ 3.22 µM) | 0.13 µg/mL (≈ 0.209 µM) | 1 µg/mL (≈ 1.61 µM) | 0.28 µg/mL (≈ 0.45 µM) | 4 µg/mL (≈ 6.43 µM) | 4 µg/mL (≈ 6.43 µM) | 4 µg/mL (≈ 6.43 µM) | 0.25 µg/mL (≈ 0.402 µM) | 2 µg/mL (≈ 3.22 µM) | 2 µg/mL (≈ 3.22 µM) | 0.016 µg/mL (≈ 0.0257 µM) | –
4 | CO/N=C(\C(=O)NC1C(=O)N2C(C(=O)[O-])=C(CSc3nc(N)c4c([n+]3N)CCC4)CSC12)c1csc(N)n1 (stereo not drawn) [Compound I-10, 7-[(Z)-2-(2-aminothiazol-4-yl)-2-(methoxyimino)acetamido]-3-(1,4-diamino-1,5,6,7-tetrahydro-cyclopentapyrimidinium-2-yl)thiomethyl-3-cephem-4-carboxylate] | 0.25 µg/mL (≈ 0.433 µM) | 16 µg/mL (≈ 27.7 µM) | 4 µg/mL (≈ 6.92 µM) | 0.25 µg/mL (≈ 0.433 µM) | 0.25 µg/mL (≈ 0.433 µM) | 0.016 µg/mL (≈ 0.0277 µM) | 0.5 µg/mL (≈ 0.866 µM) | 0.25 µg/mL (≈ 0.433 µM) | 2 µg/mL (≈ 3.46 µM) | 0.016 µg/mL (≈ 0.0277 µM) | 4 µg/mL (≈ 6.92 µM) | 0.13 µg/mL (≈ 0.225 µM) | 16 µg/mL (≈ 27.7 µM) | 0.5 µg/mL (≈ 0.866 µM) | – | – | 0.016 µg/mL (≈ 0.0277 µM) | –
5 | Nc1nc(/C(=N/OC2(C(=O)O)CCCC2)C(=O)NC2C(=O)N3C(C(=O)[O-])=C(CSc4nc(N)c5c([n+]4N)CCC5)CSC23)cs1 (stereo not drawn) [Compound I-11, 7-[(Z)-2-(2-aminothiazol-4-yl)-2-(1-carboxycyclopent-1-oxyimino)acetamido]-3-(1,4-diamino-1,5,6,7-tetrahydro-cyclopentapyrimidinium-2-yl)thiomethyl-3-cephem-4-carboxylate] | 0.25 µg/mL (≈ 0.37 µM) | 4 µg/mL (≈ 5.92 µM) | 1 µg/mL (≈ 1.48 µM) | – | 0.25 µg/mL (≈ 0.37 µM) | ≤ 0.008 µg/mL | 2 µg/mL (≈ 2.96 µM) | 0.25 µg/mL (≈ 0.37 µM) | 0.5 µg/mL (≈ 0.74 µM) | 0.13 µg/mL (≈ 0.192 µM) | 1 µg/mL (≈ 1.48 µM) | 16 µg/mL (≈ 23.7 µM) | 8 µg/mL (≈ 11.8 µM) | 0.13 µg/mL (≈ 0.192 µM) | 2 µg/mL (≈ 2.96 µM) | 1 µg/mL (≈ 1.48 µM) | 0.016 µg/mL (≈ 0.0237 µM) | –
6 | C[n+]1c(SCC2=C(C(=O)[O-])N3C(=O)C(NC(=O)/C(=N\OC4(C(=O)O)CCCC4)c4csc(N)n4)C3SC2)nc(N)c2c1CCC2 (stereo not drawn) [Compound I-12, 7-[(Z)-2-(2-aminothiazol-4-yl}-2-(1-carboxycyclopent-1-oxyimino)acetamido]-3-(4-amino-1-methyl-1,5,6,7-tetrahydro-cyclopenta-pyrimidinium-2-yl)thiomethyl-3-cephem-4-carboxylate] | 0.25 µg/mL (≈ 0.37 µM) | 8 µg/mL (≈ 11.9 µM) | 2 µg/mL (≈ 2.96 µM) | – | 0.5 µg/mL (≈ 0.741 µM) | 0.063 µg/mL (≈ 0.0934 µM) | 4 µg/mL (≈ 5.93 µM) | 0.25 µg/mL (≈ 0.37 µM) | 1 µg/mL (≈ 1.48 µM) | 0.13 µg/mL (≈ 0.193 µM) | 2 µg/mL (≈ 2.96 µM) | 8 µg/mL (≈ 11.9 µM) | 16 µg/mL (≈ 23.7 µM) | 0.13 µg/mL (≈ 0.193 µM) | 2 µg/mL (≈ 2.96 µM) | 2 µg/mL (≈ 2.96 µM) | 0.016 µg/mL (≈ 0.0237 µM) | –
7 | C[C@H](O/N=C(\C(=O)NC1C(=O)N2C(C(=O)[O-])=C(CSc3nc(N)c4c([n+]3N)CCC4)CSC12)c1csc(N)n1)C(=O)O (stereo partly drawn) [I-5(S), 7-[(Z)-2-(2-aminothiazol-4-yl)-2-((S)-1-carboxyeth-1-oxyimino)acetamido]-3-(1,4-diamino-1,5,6,7-tetrahydro-cyclopentapyrimidinium-2-yl)thiomethyl-3-cephem-4-carboxylate] | 0.25 µg/mL (≈ 0.393 µM) | 8 µg/mL (≈ 12.6 µM) | 2 µg/mL (≈ 3.15 µM) | 4 µg/mL (≈ 6.29 µM) | 2 µg/mL (≈ 3.15 µM) | – | 8 µg/mL (≈ 12.6 µM) | 0.25 µg/mL (≈ 0.393 µM) | 1 µg/mL (≈ 1.57 µM) | 0.031 µg/mL (≈ 0.0488 µM) | 2 µg/mL (≈ 3.15 µM) | 8 µg/mL (≈ 12.6 µM) | 8 µg/mL (≈ 12.6 µM) | 0.13 µg/mL (≈ 0.204 µM) | – | 2 µg/mL (≈ 3.15 µM) | – | MIC (E. coli/3190Y; 20 h): ≤ 0.008 µg/mL; MIC (E. coli/10536; 20 h): 0.016 µg/mL (≈ 0.0252 µM)
